Assay results: PMC3823594, “Conformational Changes Underlying Pore Dilation in the Cytoplasmic Domain of Mammalian Inward Rectifier K^+ Channels” (PLoS ONE, 2013)
Residue numbers refer to the chain shown, from its start.

Columns and labels:
[1] = biological target: cytoplasmic domain (CPD) of the mouse Kir3.2 E236R mutant (mouse); test: crystal structure; sitting drops; reservoir 15% (v/v) ethanol, 0.1 M HEPES-NaOH (pH 7.5), 0.2 M MgCl2; 4°C; space group P4212; 2.0 Å
[2] = biological target: cytoplasmic domain (CPD) of the mouse Kir3.2 E236R mutant (mouse); test: not stated; purified CPD E236R in solution; the method for the oligomeric state is not told
Kir3.2 WT = test: Inside-out patch clamp recording of channel activity; type: cell-based, mouse; conditions: Kir3.2 WT in HEK293T inside-out patches, −100 mV
Method: (§1) The Kir3.2d and m2R subcloned into pcDNA3 (Invitrogen) were transfected into HEK293T cells using the Lipofectamine Plus reagent (Invitrogen, Carlsbad, CA). Single-channel activity was recorded in a cell-attached configuration at a holding potential of -100 mV using a patch-clamp amplifier (Axopatch 200B; Axon Instruments). The current traces were low-pass filtered at 1 kHz and digitized at 10 kHz. The glass pipettes had resistances of 2.5–3.5 MΩ when filled with the pipette solution, which contained 135 mM KCl, 1 mM CaCl2, 1.6 mM MgCl2, 5 mM HEPES, and 5 μM ACh; the bath solution was a Tyrode solution. A 50% crossing criterion for the current amplitude was used to judge the single-channel activity.
(§2) Inside-out patch clamp experiments were performed by the excision of patch membranes in the cell-attached configuration. The bath solution consisted of 135 mM KCl, 5 mM EGTA, 2 mM MgCl2 and 5 mM HEPES. The holding potential was -100 mV. We perfused ATP at the intracellular side to produce PIP2 at the inner leaflet of the plasma membrane, GTP (3 μM) to produce Gβγ mildly and GTPγS (10 μM) to generate Gβγ maximally. The pH of all solutions was adjusted to 7.35 with KOH prior to the experiments. All experiments were conducted at ambient temperature (20–25°C).
Figure 5 Inside-out patch recordings of Kir3.2 WT and mutant channels. […]

Kir3.2 M313T = biological target: T1, Kir3.2 M313T (Mus musculus, UniProt P48542, I313T); test: as above; type: cell-based; conditions: Kir3.2 M313T in HEK293T inside-out patches, −100 mV
T1 sequence (P48542 19-425 I313T): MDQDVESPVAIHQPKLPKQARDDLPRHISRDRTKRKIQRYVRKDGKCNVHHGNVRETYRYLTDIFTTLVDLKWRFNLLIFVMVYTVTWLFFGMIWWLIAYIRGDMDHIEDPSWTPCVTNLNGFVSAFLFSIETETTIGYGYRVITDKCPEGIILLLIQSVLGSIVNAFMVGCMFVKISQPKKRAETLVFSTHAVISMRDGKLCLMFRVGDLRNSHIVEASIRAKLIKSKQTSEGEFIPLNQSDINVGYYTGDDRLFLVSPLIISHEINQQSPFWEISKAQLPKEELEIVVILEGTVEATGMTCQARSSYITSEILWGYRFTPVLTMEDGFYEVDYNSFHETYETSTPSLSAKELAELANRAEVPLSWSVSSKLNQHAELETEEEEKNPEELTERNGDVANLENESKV
T1 sequence (P06199 1-466 partner): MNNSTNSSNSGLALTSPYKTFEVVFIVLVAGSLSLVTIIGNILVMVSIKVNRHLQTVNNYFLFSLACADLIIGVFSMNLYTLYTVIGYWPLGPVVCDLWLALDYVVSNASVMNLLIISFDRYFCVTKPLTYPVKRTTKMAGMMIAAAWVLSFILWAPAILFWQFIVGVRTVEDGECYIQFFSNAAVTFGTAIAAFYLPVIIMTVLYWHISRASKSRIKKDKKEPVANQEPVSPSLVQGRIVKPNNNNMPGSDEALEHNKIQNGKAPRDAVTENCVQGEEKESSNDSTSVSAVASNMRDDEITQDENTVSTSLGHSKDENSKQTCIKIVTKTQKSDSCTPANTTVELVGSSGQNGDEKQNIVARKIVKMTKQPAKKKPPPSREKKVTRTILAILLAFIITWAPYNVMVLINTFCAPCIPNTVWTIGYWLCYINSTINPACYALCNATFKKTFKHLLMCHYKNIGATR
Method: as §1, §2
(§3) Figure 5 Inside-out patch recordings of Kir3.2 WT and mutant channels. Inside-out membrane patches were obtained from HEK293T cells expressing either Kir3.2 WT (A), M313G (B) or M313T mutant (C) channels. Experiments were conducted in symmetric 135 mM K^+ solutions with a holding potential of -100 mV. Perfusion of ATP was for the generation of PIP2 at the inner leaflet of the excised patch membranes. The protocol used for perfusion of substances to the intracellular side of the patch membrane is indicated by bars above the current traces.

Kir3.2 M313G = biological target: T2, Kir3.2 M313G (Mus musculus, UniProt P48542, I313G); test: as above; type: cell-based; conditions: Kir3.2 M313G in HEK293T inside-out patches; ATP perfused at 2 mM; −100 mV
T2 sequence (P48542 19-425 I313G): T1 sequence (P48542 19-425 I313T) with T295G
T2 sequence (P06199 1-466 partner): T1 sequence (P06199 1-466 partner)
Method: as §1, §2, §3

cytoplasmic domain (CPD) of the mouse Kir3.2 E236R mutant (domain or fragment)
stoichiometry N [1]: 4
stoichiometry N [2]: 4

Nc1nc2c(ncn2[C@@H]2O[C@H](COP(=O)(O)OP(=O)(O)OP(=O)(O)O)[C@@H](O)[C@H]2O)c(=O)[nH]1 [GTP]
Channel activity as % of the response evoked by GTPγS (Kir3.2 WT; GTP (3 μM)): 4 ± 2%
Channel activity as % of the response evoked by GTPγS (Kir3.2 M313T; GTP (3 μM)): about 11 ± 2%

Nc1ncnc2c1ncn2[C@@H]1O[C@H](COP(=O)(O)OP(=O)(O)OP(=O)(O)O)[C@@H](O)[C@H]1O [ATP]
Channel activity as % of that evoked by 10 μM GTPγS (Kir3.2 WT; ATP perfused at 2 mM): 15 ± 4%
Channel activity as % of that evoked by 10 μM GTPγS (Kir3.2 M313G): 59 ± 6%
Sensitivity to ATP perfusion (Kir3.2 M313T; in contrast to M313G): less sensitive
